# Experimental data taken from US9556132B2, “Tetrazole derivatives and their use as potassium channel modulators” (SANIONA A/S, priority 2012, dated 2017).
# Biological target: human IK (Homo sapiens (Human), UniProt O15554)
# Experiment: Inhibition of IK channels expressed in HEK293 cells, thallium (I) sensitive FLIPR assay
# Type: cell-based
# Settings: HEK293 cells over-expressing human IK; Tl+-sensitive BTC fluorescence (FLIPR); inhibition of activity induced by Ca2+-ionophore A23187
# Protocol: Following experiment determines the ability of a test compound to inhibit the activity of IK channels heterologously expressed in human HEK293 cells, and was used as the primary screen. The ability is determined as per cent inhibition of the activity induced by addition of the Ca^2+-ionophore A23187 (considered a maximum response). The activity is determined using a standard thallium (I) sensitive assay, e.g. using a fluorometric method in a Fluorescent Image Plate Reader (FLIPR) as described below in more detail.
# Full concentration/response curves are generated and IC50 values are calculated based on the degree of inhibition of the maximum response. IC50 values (Inhibitory Concentration) represent the concentration of the test substance at which 50% of the maximum channel activity is inhibited.
# Human HEK293 cells over-expressing human IK are grown in culture medium (DMEM supplemented with 10% foetal bovine serum), in polystyrene culture flasks ([…]) in a humidified atmosphere of 5% CO2 in air, at 37° C. Cell confluence should be 80-90% on day of plating. Cells are rinsed with 4 mL of PBS (phosphate buffered saline) and incubated 2 min with 1 mL of Trypsin-EDTA. After addition of 25 mL of culture medium cells are re-suspended by trituration with a 25 mL pipette.
# The cells are seeded at a density of ˜3×10^6 cells/mL (25 μL/well) in black-walled, clear bottom, 384-well plates pre-treated with 0.01 g/L poly-D-lysin (20 μL/well for ≧30 min). Plated cells were allowed to proliferate for 24 h before loading with dye.
# BTC-AM ([…], Invitrogen) is added 25.5 μl DMSO. The BTC-AM stock solution (2 mM) is diluted to a final concentration of 2 μM in […] assay buffer (in mM: 140 Na^+-gluconate, 2.5 K^+-gluconate, 6 Ca2^+-gluconate, 1 Mg^2+ gluconate, 5 glucose, 10 HEPES, pH 7.3) containing 2 μM ouabain, 2 mM amaranth and 1 mM tartrazine.
# The culture medium is aspirated from the wells, and 25 μl of the BTC-AM loading solution are added to each well. The cells are incubated at 37° C. for 60 min.
# After the loading period, the Tl^+-sensitive BTC fluorescence signal is measured over time using a FLIPR.
# • Temperature: Room temp. • First addition: 12 μl test or control compound after 15 sec at a rate of 30 μL/sec and starting height of 20 μL • Second addition: 12 μL stimulus buffer (Cl^− free assay buffer supplemented with 1 mM Tl2SO4, 5 μM A23187 as well as the quenchers amaranth (2 mM) and tartrazine (1 mM)) is added after an additional 3 minutes at a rate of 30 μL/sec and starting height of 30 μL • Reading intervals: First sequence—3 sec×5, 2 sec×24 and 5 sec×25 • Second sequence—1 sec×5, 2 sec×24 and 5 sec×36
# Addition plates (compound plate and stimulus plate) are placed in positions 2 and 3, respectively. Cell plates are placed in position 1 and run using the “IK blocker (EtOH wash, two additions)” program. FLIPR will then take the appropriate measurements in accordance with the interval settings above. Fluorescence obtained after stimulation is corrected for the mean basal fluorescence (in Cl^− free assay buffer).
# Full concentration/response curves are generated and IC50 values (“Inhibitory Concentration”, i.e. the concentration of the test substance at which 50% of the maximum channel activity is inhibited) are calculated. The responses are calculated based on peak values.
row,Compound,IC50 [nM]
1,"O/N=C/c1ccccc1-c1ccccc1-c1nnnn1-c1ccccc1F [Compound 30, (E)-N-[(2-{2-[1-(2-Fluorophenyl)-1H-1,2,3,4-tetrazol-5-yl]phenyl}phenyl)methylidene]hydroxylamine]",57
2,"CSc1ccccc1-c1ccccc1-c1nnnn1-c1ccccc1F [Compound 14, 1-(2-Fluorophenyl)-5-{2-[2-(methylthio)phenyl]phenyl}-1H-1,2,3,4-tetrazole]",460
3,"COc1ccccc1-c1ccccc1-c1nnnn1-c1ccccc1O [Compound 53, 2-{5-[2-(2-Methoxyphenyl)phenyl]-1H-1,2,3,4-tetrazol-1-yl}phenol]",1200
4,"COc1ccccc1-c1ccccc1-c1nnnn1-c1ccccc1OC [Compound 51, 1-(2-Methoxyphenyl)-5-[2-(2-methoxyphenyl)phenyl]-1H-1,2,3,4-tetrazole]",1200
